According to patent US7375103B2, “Optically active pyridine derivative and a medicament containing the same” (Bayer HealthCare AG, priority 2002, dated 2008):

What was measured:
[1] = cellular assays (not further specified); format: cell-based
Experimental: [The Measurement of RANTES Production in Response to TNF-α from A549 cells]
(1) Preparation of A549 Cells
• The A549 human lung epithelium cell line (ATCC […]) was maintained in Dulbecco's modified Eagle's medium (D-MEM, Nikken Biomedical Institute) supplemented with 10% FCS (Gibco), 100 U/ml penicillin, 100 μg/ml streptomycin, and 2 mM glutamine (culture medium). Forty thousand (4×10^4) cells (80 μl/well) were seeded in each well of 96 well flat-bottom tissue culture plate (Falcon #3072). The plate was allowed to stand for 2 hrs, thus the cells were adhered to the bottom of each well. To the each well was added 10 μl vehicle (1% DMSO), serial dilutions of test compounds in 1% DMSO, or 5 nM Dexamethasone in 1% DMSO as a reference. The mixture (90 μl/well) was incubated for 1 hr at 37° C. After 1 hr, 1 μg/ml TNF-α (10 μl) in culture medium was added to the mixture to obtain 100 μl of reaction mixture. The reaction mixture was cultured for 24 hrs to stimulate the cells with 100 ng/ml TNF-α. […] (2) Measurement of RANTES Production • Then the concentration of RANTES released from the cells in the supernatants of each well was determined using a quantitative sandwich enzyme immunoassay technique. […] Fluorescent intensity was measured using a DELFIA fluorimeter (Wallac). Excitation was performed at 340 nm and emission was measured at 615 nm. […]

[2] = test system: LPS-induced TNF-α production; experiment: Rat LPS-induced TNF-α production; format: in vivo, Wistar female rats; conditions: in Rat
Experimental: [Rat LPS-Induced TNF-α Production]
Seven weeks old Wistar female rats were used. One mg of LPS (lypopolysaccharide) dissolved in phosphate buffer saline (pH 7.4) was administered intraperitoneally (i.p.) to rats. Compounds were given orally 60 minutes prior to the LPS injection. Under anesthesia with pentobarbital (80 mg/kg, i.p.), blood was collected from the posterior venous cavity of the rats 120 minutes post-LPS injection and added into 96-well plate containing 2% EDTA solution. The plasma was separated by centrifugation at 1800 rpm for 10 minutes at 4° C. and then diluted with four times volumes of phosphate buffer saline (H 7.4) containing 1% bovine serum albumin. TNF-α concentration in the sample was determined using an ELISA kit (Endogen, Boston, Mass.).
The mean TNF-α level in 7-8 rats from each group was determined and the percent reduction in TNF-α levels was calculated.

SMILES: O=C1Nc2nc(-c3c(O)cccc3OCC3CC3)cc([C@@H]3CCCNC3)c2CO1 [the compound of the present invention, (−)-7-[2-(cyclopropylmethoxy)-6-hydroxy-phenyl]-5-[(3S)-3-piperidinyl]-1,4-hydro-2H-pyrido [2,3-d][1,3]oxazin-2-one]
- mutagenicity according to the Ames-Test Screening (Ames-Test Screening): non-mutagenic
- cellular activity compared with corresponding racemic modification [1]: twice as strong as corresponding racemic modification
- anti-inflammatory activity compared with corresponding racemic modification [2]: twice as strong as corresponding racemic modification
